# According to paper PMC9386913 (Arthritis Research & Therapy, 2022):
# Assay: Phase I multiple ascending-dose study: safety and tolerability (treatment-emergent adverse events)
# Type: in vivo, human (healthy volunteers)
# Procedure: A single-center, randomized, double-blind, placebo-controlled phase I study (NCT03554993) with a MAD component was performed in the UK between May 2018 and July 2019. Thirty-seven healthy volunteers of any race, ethnicity, or sex were enrolled. The inclusion criteria were 18 to 55 years of age inclusive, body mass index 18 to 33 kg/m^2, and physical examination by the investigator without clinically significant findings. Subjects were excluded if any clinically significant medical history, laboratory abnormality, psychiatric illness, or other condition existed that would place the subject at unacceptable risk by participating in the study. Pregnancy prevention guidance was provided as per Clinical Trial Facilitation Group recommendations. Subjects were randomly assigned to daily oral doses of CC-99677 or placebo. Subjects were dosed daily for 14 days. […] Both the investigator and subjects were blinded to the treatment arm. Safety assessments, including physical examinations, clinical laboratory tests, and collection of adverse events (AEs) were performed and graded using MedDRA version 22.0 and the US Food and Drug Administration (FDA) Toxicity Grading Scale for Healthy Adult and Adolescent Volunteers. The primary outcome of this trial was the safety and tolerability of multiple daily doses of CC-99677.
compound,measurement,setting,value
CCOCc1cnc(Cl)nc1Oc1ccc2c(ccc3sc4c(c32)NC[C@@H](C)NC4=O)n1 [CC-99677],Subjects with ≥ 1 treatment-emergent AE,"10 mg daily, 14 days (n = 5)",3 (60.0) n (%)
same,TEAE: Abdominal pain,"10 mg daily, 14 days (n = 5)",0 n (%)
same,TEAE: Alanine aminotransferase increased,"10 mg daily, 14 days (n = 5)",0 n (%)
same,TEAE: Aspartate aminotransferase increased,"10 mg daily, 14 days (n = 5)",0 n (%)
same,TEAE: Back pain,"10 mg daily, 14 days (n = 5)",0 n (%)
same,TEAE: Blood creatine phosphokinase increased,"10 mg daily, 14 days (n = 5)",0 n (%)
same,TEAE: Catheter site related reaction,"10 mg daily, 14 days (n = 5)",0 n (%)
same,TEAE: Chapped lips,"10 mg daily, 14 days (n = 5)",0 n (%)
same,TEAE: Constipation,"10 mg daily, 14 days (n = 5)",0 n (%)
same,TEAE: Diarrhea,"10 mg daily, 14 days (n = 5)",0 n (%)
same,TEAE: Dizziness,"10 mg daily, 14 days (n = 5)",1 (20.0) n (%)
same,TEAE: Dysmenorrhea,"10 mg daily, 14 days (n = 5)",0 n (%)
same,TEAE: Dyspepsia,"10 mg daily, 14 days (n = 5)",1 (20.0) n (%)
same,TEAE: Ear and labyrinth disorders,"10 mg daily, 14 days (n = 5)",1 (20.0) n (%)
same,TEAE: Ear pain,"10 mg daily, 14 days (n = 5)",1 (20.0) n (%)
same,TEAE: Flushing,"10 mg daily, 14 days (n = 5)",0 n (%)
same,TEAE: Gastrointestinal disorders,"10 mg daily, 14 days (n = 5)",2 (40.0) n (%)
same,TEAE: General disorders and administration site conditions,"10 mg daily, 14 days (n = 5)",2 (40.0) n (%)
same,TEAE: Headache,"10 mg daily, 14 days (n = 5)",2 (40.0) n (%)
same,TEAE: Hot flush,"10 mg daily, 14 days (n = 5)",0 n (%)
same,TEAE: Infections and infestations,"10 mg daily, 14 days (n = 5)",1 (20.0) n (%)
same,"TEAE: Injury, poisoning, and procedural complications","10 mg daily, 14 days (n = 5)",1 (20.0) n (%)
same,TEAE: Insomnia,"10 mg daily, 14 days (n = 5)",1 (20.0) n (%)
same,TEAE: Investigations,"10 mg daily, 14 days (n = 5)",0 n (%)
same,TEAE: Muscle strain,"10 mg daily, 14 days (n = 5)",1 (20.0) n (%)
same,TEAE: Musculoskeletal and connective tissue disorders,"10 mg daily, 14 days (n = 5)",0 n (%)
same,TEAE: Musculoskeletal pain,"10 mg daily, 14 days (n = 5)",0 n (%)
same,TEAE: Myalgia,"10 mg daily, 14 days (n = 5)",0 n (%)
same,TEAE: Nasopharyngitis,"10 mg daily, 14 days (n = 5)",0 n (%)
same,TEAE: Nausea,"10 mg daily, 14 days (n = 5)",2 (40.0) n (%)
same,TEAE: Nervous system disorders,"10 mg daily, 14 days (n = 5)",2 (40.0) n (%)
same,TEAE: Oropharyngeal pain,"10 mg daily, 14 days (n = 5)",1 (20.0) n (%)
same,TEAE: Psychiatric disorders,"10 mg daily, 14 days (n = 5)",1 (20.0) n (%)
same,TEAE: Rash pustular,"10 mg daily, 14 days (n = 5)",1 (20.0) n (%)
same,TEAE: Rectal hemorrhage,"10 mg daily, 14 days (n = 5)",0 n (%)
same,TEAE: Reproductive system and breast disorders,"10 mg daily, 14 days (n = 5)",0 n (%)
same,"TEAE: Respiratory, thoracic, and mediastinal disorders","10 mg daily, 14 days (n = 5)",1 (20.0) n (%)
same,TEAE: Sensation of foreign body,"10 mg daily, 14 days (n = 5)",1 (20.0) n (%)
same,TEAE: Vascular disorders,"10 mg daily, 14 days (n = 5)",0 n (%)
same,TEAE: Vessel puncture site pain,"10 mg daily, 14 days (n = 5)",1 (20.0) n (%)
same,TEAE: Vessel puncture site reaction,"10 mg daily, 14 days (n = 5)",0 n (%)
same,Subjects with ≥ 1 treatment-emergent AE,"30 mg daily, 14 days (n = 6)",4 (66.7) n (%)
same,TEAE: Abdominal pain,"30 mg daily, 14 days (n = 6)",0 n (%)
same,TEAE: Alanine aminotransferase increased,"30 mg daily, 14 days (n = 6)",0 n (%)
same,TEAE: Aspartate aminotransferase increased,"30 mg daily, 14 days (n = 6)",0 n (%)
same,TEAE: Back pain,"30 mg daily, 14 days (n = 6)",0 n (%)
same,TEAE: Blood creatine phosphokinase increased,"30 mg daily, 14 days (n = 6)",0 n (%)
same,TEAE: Catheter site related reaction,"30 mg daily, 14 days (n = 6)",0 n (%)
same,TEAE: Chapped lips,"30 mg daily, 14 days (n = 6)",1 (16.7) n (%)
same,TEAE: Constipation,"30 mg daily, 14 days (n = 6)",0 n (%)
same,TEAE: Diarrhea,"30 mg daily, 14 days (n = 6)",0 n (%)
same,TEAE: Dizziness,"30 mg daily, 14 days (n = 6)",1 (16.7) n (%)
same,TEAE: Dysmenorrhea,"30 mg daily, 14 days (n = 6)",0 n (%)
same,TEAE: Dyspepsia,"30 mg daily, 14 days (n = 6)",0 n (%)
same,TEAE: Ear and labyrinth disorders,"30 mg daily, 14 days (n = 6)",0 n (%)
same,TEAE: Ear pain,"30 mg daily, 14 days (n = 6)",0 n (%)
same,TEAE: Flushing,"30 mg daily, 14 days (n = 6)",0 n (%)
same,TEAE: Gastrointestinal disorders,"30 mg daily, 14 days (n = 6)",2 (33.3) n (%)
same,TEAE: General disorders and administration site conditions,"30 mg daily, 14 days (n = 6)",0 n (%)
same,TEAE: Headache,"30 mg daily, 14 days (n = 6)",0 n (%)
same,TEAE: Hot flush,"30 mg daily, 14 days (n = 6)",0 n (%)
same,TEAE: Infections and infestations,"30 mg daily, 14 days (n = 6)",1 (16.7) n (%)
same,"TEAE: Injury, poisoning, and procedural complications","30 mg daily, 14 days (n = 6)",0 n (%)
same,TEAE: Insomnia,"30 mg daily, 14 days (n = 6)",0 n (%)
same,TEAE: Investigations,"30 mg daily, 14 days (n = 6)",0 n (%)
same,TEAE: Muscle strain,"30 mg daily, 14 days (n = 6)",0 n (%)
same,TEAE: Musculoskeletal and connective tissue disorders,"30 mg daily, 14 days (n = 6)",2 (33.3) n (%)
same,TEAE: Musculoskeletal pain,"30 mg daily, 14 days (n = 6)",0 n (%)
same,TEAE: Myalgia,"30 mg daily, 14 days (n = 6)",2 (33.3) n (%)
same,TEAE: Nasopharyngitis,"30 mg daily, 14 days (n = 6)",1 (16.7) n (%)
same,TEAE: Nausea,"30 mg daily, 14 days (n = 6)",0 n (%)
same,TEAE: Nervous system disorders,"30 mg daily, 14 days (n = 6)",1 (16.7) n (%)
same,TEAE: Oropharyngeal pain,"30 mg daily, 14 days (n = 6)",0 n (%)
same,TEAE: Psychiatric disorders,"30 mg daily, 14 days (n = 6)",0 n (%)
same,TEAE: Rash pustular,"30 mg daily, 14 days (n = 6)",0 n (%)
same,TEAE: Rectal hemorrhage,"30 mg daily, 14 days (n = 6)",1 (16.7) n (%)
same,TEAE: Reproductive system and breast disorders,"30 mg daily, 14 days (n = 6)",0 n (%)
same,"TEAE: Respiratory, thoracic, and mediastinal disorders","30 mg daily, 14 days (n = 6)",0 n (%)
same,TEAE: Sensation of foreign body,"30 mg daily, 14 days (n = 6)",0 n (%)
same,TEAE: Vascular disorders,"30 mg daily, 14 days (n = 6)",0 n (%)
same,TEAE: Vessel puncture site pain,"30 mg daily, 14 days (n = 6)",0 n (%)
same,TEAE: Vessel puncture site reaction,"30 mg daily, 14 days (n = 6)",0 n (%)
same,Subjects with ≥ 1 treatment-emergent AE,"60 mg daily, 14 days (n = 6)",1 (16.7) n (%)
same,TEAE: Abdominal pain,"60 mg daily, 14 days (n = 6)",0 n (%)
same,TEAE: Alanine aminotransferase increased,"60 mg daily, 14 days (n = 6)",0 n (%)
same,TEAE: Aspartate aminotransferase increased,"60 mg daily, 14 days (n = 6)",0 n (%)
same,TEAE: Back pain,"60 mg daily, 14 days (n = 6)",0 n (%)
same,TEAE: Blood creatine phosphokinase increased,"60 mg daily, 14 days (n = 6)",0 n (%)
same,TEAE: Catheter site related reaction,"60 mg daily, 14 days (n = 6)",0 n (%)
same,TEAE: Chapped lips,"60 mg daily, 14 days (n = 6)",0 n (%)
same,TEAE: Constipation,"60 mg daily, 14 days (n = 6)",0 n (%)
same,TEAE: Diarrhea,"60 mg daily, 14 days (n = 6)",0 n (%)
same,TEAE: Dizziness,"60 mg daily, 14 days (n = 6)",0 n (%)
same,TEAE: Dysmenorrhea,"60 mg daily, 14 days (n = 6)",0 n (%)
same,TEAE: Dyspepsia,"60 mg daily, 14 days (n = 6)",0 n (%)
same,TEAE: Ear and labyrinth disorders,"60 mg daily, 14 days (n = 6)",0 n (%)
same,TEAE: Ear pain,"60 mg daily, 14 days (n = 6)",0 n (%)
same,TEAE: Flushing,"60 mg daily, 14 days (n = 6)",0 n (%)
same,TEAE: Gastrointestinal disorders,"60 mg daily, 14 days (n = 6)",0 n (%)
same,TEAE: General disorders and administration site conditions,"60 mg daily, 14 days (n = 6)",0 n (%)
same,TEAE: Headache,"60 mg daily, 14 days (n = 6)",1 (16.7) n (%)
same,TEAE: Hot flush,"60 mg daily, 14 days (n = 6)",0 n (%)
same,TEAE: Infections and infestations,"60 mg daily, 14 days (n = 6)",0 n (%)
same,"TEAE: Injury, poisoning, and procedural complications","60 mg daily, 14 days (n = 6)",0 n (%)
same,TEAE: Insomnia,"60 mg daily, 14 days (n = 6)",0 n (%)
